{"source": "ChEMBL document CHEMBL1201862", "about": "“PubChem BioAssay data set” (2004)", "key": {"Phospholipase A2": {"molecular_target": "Phospholipase A2 (Homo sapiens, UniProt P04054)", "sequence (P04054 whole entry)": "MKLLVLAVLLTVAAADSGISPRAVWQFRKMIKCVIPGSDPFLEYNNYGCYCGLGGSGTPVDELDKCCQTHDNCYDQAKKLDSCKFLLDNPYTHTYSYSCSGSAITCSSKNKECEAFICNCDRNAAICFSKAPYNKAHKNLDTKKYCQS", "type": "functional"}, "Cysteine protease ATG4B": {"molecular_target": "T1, Cysteine protease ATG4B (Homo sapiens, UniProt Q9Y4P1)", "T1 sequence (Q9Y4P1 whole entry)": "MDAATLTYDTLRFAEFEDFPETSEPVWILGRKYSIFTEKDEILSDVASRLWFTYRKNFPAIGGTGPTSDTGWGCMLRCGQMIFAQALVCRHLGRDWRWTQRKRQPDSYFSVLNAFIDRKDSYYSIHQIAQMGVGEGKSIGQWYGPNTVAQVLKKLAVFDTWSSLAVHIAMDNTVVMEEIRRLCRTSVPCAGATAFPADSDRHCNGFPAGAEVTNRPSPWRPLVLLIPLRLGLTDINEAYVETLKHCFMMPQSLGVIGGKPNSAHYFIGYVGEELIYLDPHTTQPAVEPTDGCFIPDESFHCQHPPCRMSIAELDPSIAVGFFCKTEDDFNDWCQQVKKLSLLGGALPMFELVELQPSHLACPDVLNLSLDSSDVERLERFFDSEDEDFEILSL", "type": "functional"}, "[1]": {"test": "NIH3T3 cell viability loss – ATP luminescence, mouse fibroblasts, counter-screen, dose response (AID 2010);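 also: cells exposed to compound for about 90 hours before reading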", "type": "functional, cell-based"}, "[2]": {"test": "Trypanosoma cruzi growth suppression in host cells – NIH3T3 host cells, beta-gal luminescence, confirmation (AID 2044);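 also: intracellular parasites grown in NIH/3T3 mouse fibroblasts as host cells; luminescent beta-galactosidase reporter signal from transgenic T. cruzi replicating inside host cells; inhibitors lower the luminescence signal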", "type": "functional, cell-based"}, "[3]": {"molecular_target": "DNA dC->dU-editing enzyme APOBEC-3G (Homo sapiens, UniProt Q9HC16)", "sequence (Q9HC16 whole entry)": "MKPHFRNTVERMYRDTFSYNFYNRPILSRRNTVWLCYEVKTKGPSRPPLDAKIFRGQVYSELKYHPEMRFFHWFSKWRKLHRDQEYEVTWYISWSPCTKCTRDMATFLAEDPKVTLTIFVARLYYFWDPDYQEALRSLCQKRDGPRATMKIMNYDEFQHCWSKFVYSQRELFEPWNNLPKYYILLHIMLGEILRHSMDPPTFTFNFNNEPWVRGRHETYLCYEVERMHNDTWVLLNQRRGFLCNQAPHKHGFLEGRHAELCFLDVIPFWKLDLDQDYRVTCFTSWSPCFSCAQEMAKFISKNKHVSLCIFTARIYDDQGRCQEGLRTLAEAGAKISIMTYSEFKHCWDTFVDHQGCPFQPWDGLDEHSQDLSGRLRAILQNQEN", "test": "Dose Response confirmation of small molecule APOBEC3G DNA Deaminase Inhibitors via a fluorescence-based single-stranded DNA deaminase assay. [Related pubchem assays (depositor defined):AID493012, AID493028]", "type": "functional"}, "[4]": {"test": "blockers of HIV-1 envelope-mediated cell-cell fusion – cherry-pick, dose response (AID 652057)", "type": "functional, cell-based"}, "[5]": {"test": "blockers of HIV-1 ZM109 envelope-driven cell-cell fusion – HeLa effector, CEM target cells, luciferase, cherry-pick, dose response (AID 652058)", "type": "functional, cell-based"}, "[6]": {"test": "non-specific 3'UTR reporter inhibition in Clone20-Shn3RL – cell-based, Renilla luciferase, cherry-picked, counter-screen for Shn3 inhibitor project, dose response (AID 624133)", "type": "functional"}, "[7]": {"test": "reduction of Shn3 3'UTR-driven luciferase in osteoblasts – cell-based, Clone20 osteoblasts, firefly luciferase, cherry-picked, dose response (AID 624132)", "type": "functional"}, "[8]": {"test": "HIV-1 AD8 envelope cell-cell fusion blockers – cherry-pick, dose response (AID 652062);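 also: luciferase signal from cell-cell fusion driven by HIV-1 clade B AD8 Env; potency is for inhibitors of fusion seen as a drop in luminescence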", "type": "functional, cell-based"}, "[9]": {"test": "loss of viability in HepG2 cells – cell-based, CellTiter-Glo, cherry-picked, cytotoxicity control for Shn3 inhibitor project, dose response (AID 624134)", "type": "functional"}, "[10]": {"molecular_target": "Glyceraldehyde-3-phosphate dehydrogenase (Homo sapiens, UniProt P04406)", "sequence (P04406 whole entry)": "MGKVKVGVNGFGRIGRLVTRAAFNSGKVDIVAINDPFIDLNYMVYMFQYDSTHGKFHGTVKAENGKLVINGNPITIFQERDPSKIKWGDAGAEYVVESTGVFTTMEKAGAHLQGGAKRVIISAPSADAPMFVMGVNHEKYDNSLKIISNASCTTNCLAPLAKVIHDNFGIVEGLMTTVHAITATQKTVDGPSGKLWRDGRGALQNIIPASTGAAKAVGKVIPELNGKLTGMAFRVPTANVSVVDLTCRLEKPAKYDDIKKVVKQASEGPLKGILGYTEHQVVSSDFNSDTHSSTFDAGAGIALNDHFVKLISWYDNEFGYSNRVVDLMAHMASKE"}, "[11]": {"molecular_target": "T2, Alkaline phosphatase, tissue-nonspecific isozyme (Homo sapiens, UniProt P05186)", "T2 sequence (P05186 whole entry)": "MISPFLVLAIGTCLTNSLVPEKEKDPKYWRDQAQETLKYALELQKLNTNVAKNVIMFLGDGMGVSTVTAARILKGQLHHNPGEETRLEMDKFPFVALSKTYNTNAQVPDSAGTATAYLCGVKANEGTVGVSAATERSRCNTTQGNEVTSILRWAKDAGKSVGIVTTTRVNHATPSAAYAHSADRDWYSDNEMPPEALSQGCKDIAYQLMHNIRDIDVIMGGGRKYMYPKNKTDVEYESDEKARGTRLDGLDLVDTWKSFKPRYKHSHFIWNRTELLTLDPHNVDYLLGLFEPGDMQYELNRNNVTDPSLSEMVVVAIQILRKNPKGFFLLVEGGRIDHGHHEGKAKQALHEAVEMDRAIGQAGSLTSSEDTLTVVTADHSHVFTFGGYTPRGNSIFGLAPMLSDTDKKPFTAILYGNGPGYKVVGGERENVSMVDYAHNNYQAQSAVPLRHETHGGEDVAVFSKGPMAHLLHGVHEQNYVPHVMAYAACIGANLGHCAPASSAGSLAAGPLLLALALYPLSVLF", "test": "potency against alkaline phosphatase TNAP – biochemical, luminescent, dose response, SAR follow-up (AID 1056)"}, "[12]": {"molecular_target": "T3, Corticotropin-releasing factor receptor 2/Corticotropin-releasing factor-binding protein (Homo sapiens, UniProt P24387+Q13324)", "T3 sequence (Q13324 whole entry)": "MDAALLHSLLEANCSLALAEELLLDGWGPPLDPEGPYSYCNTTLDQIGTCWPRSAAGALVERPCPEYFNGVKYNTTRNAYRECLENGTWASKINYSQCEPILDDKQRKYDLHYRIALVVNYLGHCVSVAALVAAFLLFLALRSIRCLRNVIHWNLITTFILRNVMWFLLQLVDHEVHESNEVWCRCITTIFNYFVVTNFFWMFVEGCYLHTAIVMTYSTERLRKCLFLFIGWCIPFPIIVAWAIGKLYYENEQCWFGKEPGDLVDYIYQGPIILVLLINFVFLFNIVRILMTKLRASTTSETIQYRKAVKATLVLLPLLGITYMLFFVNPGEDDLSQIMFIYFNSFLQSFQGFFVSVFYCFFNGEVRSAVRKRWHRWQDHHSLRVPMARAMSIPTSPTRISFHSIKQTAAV", "T3 sequence (P24387 whole entry)": "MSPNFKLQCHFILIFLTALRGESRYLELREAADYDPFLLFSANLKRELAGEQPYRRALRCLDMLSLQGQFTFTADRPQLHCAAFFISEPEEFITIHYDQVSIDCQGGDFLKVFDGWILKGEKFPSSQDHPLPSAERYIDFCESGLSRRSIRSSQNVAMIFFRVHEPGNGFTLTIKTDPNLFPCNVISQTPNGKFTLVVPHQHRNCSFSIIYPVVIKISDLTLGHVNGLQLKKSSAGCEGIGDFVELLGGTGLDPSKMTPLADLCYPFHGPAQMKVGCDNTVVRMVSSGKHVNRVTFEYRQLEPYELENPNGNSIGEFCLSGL", "test": "Dose Response confirmation of uHTS hits for small molecule antagonists of the CRF-binding protein and CRF-R2 receptor complex.", "type": "functional", "settings": "read-out: IC50_Mean"}, "[13]": {"molecular_target": "T3, Corticotropin-releasing factor receptor 2/Corticotropin-releasing factor-binding protein", "test": "activators of CRF receptor 2 with binding protein – uHTS hits, confirmation (AID 602473)", "type": "functional", "settings": "read-out: EC50_Mean"}, "[14]": {"test": "blockers of CRF-binding protein–CRF-R2 complex – cell-based, uHTS hits, 384-well, dose response (AID 651639)", "type": "functional, Homo sapiens", "settings": "read-out: IC50_Mean"}, "cells": {"test": "cells", "type": "functional"}, "Estrogen receptor beta": {"molecular_target": "Estrogen receptor beta (Homo sapiens, UniProt Q92731)", "sequence (Q92731 whole entry)": "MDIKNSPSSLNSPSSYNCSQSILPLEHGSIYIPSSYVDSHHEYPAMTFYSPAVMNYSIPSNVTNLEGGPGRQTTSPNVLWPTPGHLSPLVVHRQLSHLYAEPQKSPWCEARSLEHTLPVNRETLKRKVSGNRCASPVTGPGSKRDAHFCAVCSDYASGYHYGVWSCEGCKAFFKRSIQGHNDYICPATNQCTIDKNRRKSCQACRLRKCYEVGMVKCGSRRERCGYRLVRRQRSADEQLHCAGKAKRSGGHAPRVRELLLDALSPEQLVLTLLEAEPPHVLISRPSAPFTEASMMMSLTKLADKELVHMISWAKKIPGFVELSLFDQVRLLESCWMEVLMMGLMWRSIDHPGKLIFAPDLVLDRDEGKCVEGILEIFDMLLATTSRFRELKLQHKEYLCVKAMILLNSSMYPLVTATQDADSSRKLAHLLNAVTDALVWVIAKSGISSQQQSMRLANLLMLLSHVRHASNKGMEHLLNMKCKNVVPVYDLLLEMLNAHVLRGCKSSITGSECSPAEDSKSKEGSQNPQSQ"}}, "note": "Active and inactive are the calls of the source.", "data": [{"smiles": "O=C(COc1ccccc1-c1ccccc1)NCc1cccc(Cl)c1", "values": [{"measurement": "IC50", "setting": "Phospholipase A2", "value": "7.72 µM (active)"}, {"measurement": "IC50", "setting": "Cysteine protease ATG4B", "value": "11.4 µM (active)"}]}, {"smiles": "CCOc1ccc(NCc2ccccc2OCc2cccc(F)c2)cc1", "values": [{"measurement": "IC50", "setting": "Phospholipase A2", "value": "5.3 µM (active)"}, {"measurement": "EC50", "setting": "[1]", "value": "> 60 µM (not active)"}, {"measurement": "IC50", "setting": "Cysteine protease ATG4B", "value": "8.88 µM (active)"}, {"measurement": "EC50", "setting": "[2]", "value": "1.29 µM (active)"}]}, {"smiles": "O=[N+]([O-])c1ccc(N2CCN(C(=S)c3cccc([N+](=O)[O-])c3)CC2)cc1", "values": [{"measurement": "IC50", "setting": "[3]", "value": "47.7 µM (active)"}]}, {"smiles": "CSc1ccc(CN(C)C(=O)c2cccc(S(=O)(=O)N3CCN(Cc4ccccc4)CC3)c2)cc1", "values": [{"measurement": "AC50", "setting": "[4]", "value": "10.3 µM (active)"}, {"measurement": "AC50", "setting": "[5]", "value": "10.3 µM (active)"}, {"measurement": "AC50", "setting": "[6]", "value": "14.3 µM (active)"}, {"measurement": "AC50", "setting": "[7]", "value": "2.89 µM (active)"}, {"measurement": "AC50", "setting": "[8]", "value": "8.39 µM (active)"}, {"measurement": "AC50", "setting": "[9]", "value": "64.6 µM (active)"}]}, {"smiles": "COc1ccc(S(=O)(=O)Nc2ccc3ccccc3c2)cc1", "values": [{"measurement": "IC50", "setting": "[10]", "value": "> 100 µM (not active)"}, {"measurement": "IC50", "setting": "[11]", "value": "> 100 µM (inactive)"}]}, {"smiles": "O=C(Oc1c(Br)cc([N+](=O)[O-])cc1Br)c1cccnc1", "values": [{"measurement": "IC50", "setting": "[12]", "value": "9.69 µM (active)"}, {"measurement": "EC50", "setting": "[13]", "value": "> 53 µM (inactive)"}, {"measurement": "IC50", "setting": "[14]", "value": "> 20 µM (inactive)"}]}, {"smiles": "Cn1c(COc2ccccc2)nnc1SCC(=O)c1cccc([N+](=O)[O-])c1", "values": [{"measurement": "IC50", "setting": "[12]", "value": "23.4 µM (active)"}, {"measurement": "EC50", "setting": "[13]", "value": "> 53 µM (inactive)"}, {"measurement": "IC50", "setting": "[14]", "value": "7.77 µM (active)"}]}, {"smiles": "CCCCNC(=O)COC(=O)c1cc(F)c(F)cc1Cl", "values": [{"measurement": "IC50", "setting": "cells", "value": "8.58 µM (active)"}]}, {"smiles": "Cc1ccccc1Cn1ccc(NC(=O)c2cc3ncc(Br)cn3n2)n1", "values": [{"measurement": "IC50", "setting": "[12]", "value": "< 0.368 µM (active)"}, {"measurement": "EC50", "setting": "[13]", "value": "> 53 µM (inactive)"}, {"measurement": "IC50", "setting": "[14]", "value": "2.65 µM (active)"}]}, {"smiles": "O=C(CNC(=O)c1ccco1)OCc1ccc(Cl)cc1", "values": [{"measurement": "IC50", "setting": "Estrogen receptor beta", "value": "> 50 µM (not active)"}]}, {"smiles": "CCn1cc(SCC(=O)NCc2ccc3c(c2)OCO3)c2ccccc21", "values": [{"measurement": "IC50", "setting": "Estrogen receptor beta", "value": "> 50 µM (not active)"}]}, {"smiles": "NS(=O)(=O)c1ccc(CCNC2CC(=O)N(CCc3ccccc3)C2=O)cc1", "note": "(stereo not drawn)", "values": [{"measurement": "IC50", "setting": "Estrogen receptor beta", "value": "> 50 µM (not active)"}]}, {"smiles": "Cc1ccc2cccc(Oc3ncnc4scc(-c5ccccc5)c34)c2n1", "values": [{"measurement": "IC50", "setting": "[12]", "value": "7.86 µM (active)"}, {"measurement": "EC50", "setting": "[13]", "value": "> 53 µM (inactive)"}, {"measurement": "IC50", "setting": "[14]", "value": "9.74 µM (active)"}]}, {"smiles": "O=C1Nc2cc(Cl)c(Cl)cc2N(O)N1c1cc(Cl)cc(Cl)c1", "values": [{"measurement": "IC50", "setting": "Phospholipase A2", "value": "13.7 µM (active)"}, {"measurement": "IC50", "setting": "Cysteine protease ATG4B", "value": "14.5 µM (active)"}]}]}
